Test results from PMC4114533, “Synthesis, Anti-tubulin and Antiproliferative SAR of Steroidomimetic Dihydroisoquinolinones” (Chemmedchem, 2014).

Legend:
[1] = system: DU-145 human prostate cancer cells; test: Antiproliferative assay (WST-1, 96 h), DU-145; type: cell-based; conditions: Homo sapiens; DU-145 cells, 96 h, WST-1, mean of three determinations
Experimental: (§1) Cell lines: DU-145 (brain metastasis carcinoma of the prostate) and MDA MB-231 (metastatic pleural effusion of breast adenocarcinoma) established human cell lines were obtained from ATCC Global Bioresource Center. Cells were maintained in a 5 % CO2 humidified atmosphere at 37 °C in RPMI-1640 medium, supplemented with 10 % fetal bovine serum, penicillin, (100 U mL^−1), and streptomycin (0.1 mg mL^−1). The effect of drugs on tubule formation was assessed using an angiogenesis kit (TCS-Cellworks).
(§2) Antiproliferative assays: DU-145 and MDA MB-231 cells were seeded into 96-well microtitre plates (5000 cells per well) and treated with compound (10^−9–10^−4 M) or with vehicle control. At 96 h post-treatment, live cell counts were determined by WST-1 cell proliferation assay (Roche, Penzberg, Germany), as per the manufacturer’s instructions. Viability results were expressed as a percentage of mean control values resulting in the calculation of the 50 % growth inhibition (GI50). All experiments were performed in triplicate.

[2] = system: MDA MB-231 human breast cancer cells; test: Antiproliferative assay (WST-1, 96 h), MDA MB-231; type: cell-based; conditions: MDA MB-231 cells, WST-1, mean of three determinations
Experimental: as §1, §2

[3] = system: Leukemia CCRF-CEM; test: NCI 60-cell line assay, CCRF-CEM; type: cell-based; conditions: Homo sapiens, NCI-60 panel, mean of three determinations
Experimental: (§3) Data from seven cell lines are presented along with the mean activity across the whole panel (MGM value). Screening was conducted at concentrations ranging from 10 nM upwards, with maximal activity (where a 50 % growth inhibition was obtained in all cell lines at a concentration of 10 nM) being indicated by an MGM value of 10 nM.

[4] = system: Lung HOP-62; test: NCI 60-cell line assay, HOP-62; type: cell-based; conditions: Homo sapiens, NCI-60 panel, mean of three determinations
Experimental: as §3

[5] = system: Colon HCT-116; test: NCI 60-cell line assay, HCT-116; type: cell-based; conditions: Homo sapiens, NCI-60 panel, mean of three determinations
Experimental: as §3

[6] = system: CNS SF-539; test: NCI 60-cell line assay, SF-539; type: cell-based; conditions: CNSSF-539; NCI-60 panel, mean of three determinations
Experimental: as §3

[7] = system: Melanoma UACC-62; test: NCI 60-cell line assay, UACC-62; type: cell-based; conditions: Homo sapiens, NCI-60 panel, lowest concentration screened 10 nM
Experimental: as §3

[8] = system: Ovarian OVCAR-3; test: NCI 60-cell line assay, OVCAR-3; type: cell-based; conditions: Homo sapiens, NCI-60 panel, lowest concentration screened 10 nM
Experimental: as §3

[9] = system: Renal SN12-C; test: NCI 60-cell line assay, SN12-C; type: cell-based; conditions: Homo sapiens, SN12C; NCI-60 panel, mean of three determinations
Experimental: as §3

[10] = system: NCI 60-cell line panel; test: NCI 60-cell line assay, mean across whole panel (MGM); type: cell-based; conditions: NCI-60 panel
Experimental: as §3

[11] = system: Bovine brain tubulin; test: Tubulin polymerisation (assembly) assay; type: biochemical; conditions: 10 μM tubulin, mean ±SD of at least two determinations; read-out: TP IC50 (tubulin polymerisation)
Experimental: (§4) Tubulin assays: Bovine brain tubulin, prepared as described previously,[16] was used in studies presented here. Assembly IC50 values were determined as described in detail elsewhere.[17] Briefly, 1.0 mg mL^−1 (10 μM) tubulin was pre-incubated without GTP with varying compound concentrations for 15 min at 30 °C. Reaction mixtures were placed on ice, and GTP (final concentration, 0.4 mM) was added. The reaction mixtures were transferred to cuvettes, held at 0 °C in a recording spectrophotometer. Baselines were established at 0 °C, and increase in turbidity was followed for 20 min following a rapid (<30 s) jump to 30 °C. Compound concentrations required to decrease the turbidity increase by 50 % were determined. The method for measuring inhibition of the binding of [^3H]colchicine to tubulin was described in detail previously.[18] Reaction mixtures contained 0.1 mg mL^−1 (1.0 μM) tubulin, 5.0 μM [^3H]colchicine, and potential inhibitor at 5.0 μM. […] A minimum of two experiments were performed with each compound.

[12] = target: T1, Bovine brain tubulin (Bos taurus, UniProt P81947+Q6B856); test: Inhibition of [3H]colchicine binding to tubulin; conditions: 5 μM inhibitor, 1.0 μM tubulin, 5.0 μM [3H]colchicine, mean ±SD; read-out: CB [% inhib.] 5 μM inhibitor
T1 construct: from tissue; host or cells: bovine brain
Experimental: as §4

T1 sequence (Q6B856 whole entry): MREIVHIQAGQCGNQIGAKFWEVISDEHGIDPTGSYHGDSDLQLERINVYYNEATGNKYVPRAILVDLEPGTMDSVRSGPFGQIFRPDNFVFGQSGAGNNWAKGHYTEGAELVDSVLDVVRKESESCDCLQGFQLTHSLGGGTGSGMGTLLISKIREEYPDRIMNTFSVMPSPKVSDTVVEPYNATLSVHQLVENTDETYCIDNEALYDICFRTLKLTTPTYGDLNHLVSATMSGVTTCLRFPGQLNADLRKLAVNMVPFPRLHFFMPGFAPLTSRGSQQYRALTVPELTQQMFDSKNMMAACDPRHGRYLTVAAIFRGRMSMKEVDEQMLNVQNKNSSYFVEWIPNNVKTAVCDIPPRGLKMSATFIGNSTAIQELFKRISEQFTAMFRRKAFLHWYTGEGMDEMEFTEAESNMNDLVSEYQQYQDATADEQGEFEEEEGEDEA
T1 sequence (P81947 whole entry): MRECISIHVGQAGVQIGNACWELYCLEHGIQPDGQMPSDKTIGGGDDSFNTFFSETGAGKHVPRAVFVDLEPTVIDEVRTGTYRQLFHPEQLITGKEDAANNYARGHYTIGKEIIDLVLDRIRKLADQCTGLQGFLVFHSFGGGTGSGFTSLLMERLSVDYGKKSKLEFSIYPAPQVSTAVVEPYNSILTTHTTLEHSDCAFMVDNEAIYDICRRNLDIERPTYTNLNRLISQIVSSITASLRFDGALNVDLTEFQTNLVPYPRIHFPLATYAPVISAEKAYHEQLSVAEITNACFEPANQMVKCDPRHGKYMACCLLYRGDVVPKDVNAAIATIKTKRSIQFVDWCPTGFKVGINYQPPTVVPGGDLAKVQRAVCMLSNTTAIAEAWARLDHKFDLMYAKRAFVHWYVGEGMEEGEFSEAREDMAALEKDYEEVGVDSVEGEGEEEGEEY

GI50 [1]: 0.051 µM | GI50 [2]: 0.071 µM | IC50 [11]: 1.3 ± 0.1 µM | inhibition at 5 µM [12]: 83 ± 2%
Compound: COc1cc2c(cc1O)CCN(C(=O)c1cc(OC)c(OC)c(OC)c1)C2=O [16 g, 6-Hydroxy-7-methoxy-2-(3,4,5-trimethoxybenzoyl)-3,4-dihydroisoquinolin-1(2H)-one]
GI50 [3]: 0.0171 µM | GI50 [4]: 0.0295 µM | GI50 [5]: 0.0216 µM | GI50 [6]: 0.0102 µM | GI50 [7]: < 0.01 µM | GI50 [8]: < 0.01 µM | GI50 [9]: 0.056 µM | mean activity in the NCI 60-cell line assay [10]: 33 nM | MGM (mean concentration that caused 50 % growth inhibition in all 60 cell lines) ([10]; all 60 cell lines): 0.033 µM
